Laboratory results as given in patent US8367682B2, “Pyrimidine derivatives and their use as pesticides” (Novartis AG, priority 2006, dated 2013).

What was measured:
[1] = test system: Rhipicephalus sanguineus nymphs; experiment: In-vivo test against Rhipicephalus sanguineus nymphs on Mongolian gerbils; details: for % reduction of number of ticks: spray (or spot-on) on gerbils, vs placebo group, Abbot's formula
Procedure: 4. In-Vivo Test Against Rhipicephalus sanquineus Nymphs on Mongolian Gerbils (Meriones unguiculatus)
On day 0, gerbils are treated with the test compound at a given dose by spray (or spot-on) application. On day +1 (+2), the animals are infested with nymphs of R. sanguineus. Ticks are left on the animals until full repletion. Seven days after infestation nymphs dropped off fully engorged are collected and counted. They are kept until molting to also evaluate growth regulating activity of the test compound. Efficacy in killing (and growth regulating) is expressed as a tick number (and molted tick number) reduction in comparison with a placebo treated group, using the Abbot's formula. A tick number reduction of more than 60%, in particular more than 70%, is regarded as a minimum prerequisite for a commercial development of a compound. In addition, said killing efficacy should be put into practice with the minimal dose for safety and environmental reasons.

Rhipicephalus sanguineus = experiment: Activity in vitro against Rhipicephalus sanguineus (dog ticks), HTS; details: in this test; adult ticks; concentration not given
Procedure: 2. Activity in Vitro Against Rhipicephalus sanguineus (Dog Ticks)—HTS
A clean adult tick population is used to seed a suitably formatted 96-well plate containing the test substances to be evaluated for antiparasitic activity. Each compound is tested by serial dilution in order to determine its MED. Ticks are left in contact with the test compound for 10 minutes and are then incubated at 28° C. and 80% relative humidity (RH) for 7 days, during which the test compound's effect is monitored. Acaricidal activity is confirmed if and when adult ticks are dead.

Ctenocephalides felis = experiment: Activity in vitro against Ctenocephalides felis (cat flea), HTS, artificial blood feeding; details: in this test; adult fleas; concentration not given
Procedure: 3. Activity in Vitro Against Ctenocephalides felis (Cat Flea)—HTS
A mixed adult population of fleas is placed in a suitably formatted 96-well plate allowing fleas to access and feed on treated blood via an artificial feeding system. Each compound is tested by serial dilution in order to determine its MED. Fleas are fed on treated blood for 24 hours, after which the compound's effect is recorded. Insecticidal activity is determined on the basis of the number of dead fleas recovered from the feeding system.

Row | SMILES | % reduction of number of ticks ([1]; dose 10 mg/kg) | % reduction of number of ticks ([1]; dose 3.2 mg/kg) | further results
1 | Cc1cc(-c2nc(Oc3ccc(F)c(C(F)(F)F)c3)c(N)c(Oc3ccc(F)c(C(F)(F)F)c3)n2)ccc1F [Compound 1.23] | 99% |  | 
2 | CN(C)c1cccc(-c2nc(Oc3ccc(F)c(C(F)(F)F)c3)c(N)c(Oc3ccc(F)c(C(F)(F)F)c3)n2)c1 [Compound 1.34, 2-(3-Dimethylamino-phenyl)-4,6-bis-(4-fluoro-3-trifluoromethyl-phenoxy)-pyrimidin-5-ylamine] |  | 85% | 
3 | CC(O)c1cccc(-c2nc(Oc3ccc(F)c(C(F)(F)F)c3)c(N)c(Oc3ccc(F)c(C(F)(F)F)c3)n2)c1 (stereo not shown) [Compound 1.18] | 85% |  | 
4 | Cn1ccc2ccc(-c3nc(Oc4ccc(F)c(C(F)(F)F)c4)c(N)c(Oc4ccc(F)c(C(F)(F)F)c4)n3)cc21 [Compound 2.2] |  | 89% | 
5 | Nc1c(Oc2ccc(F)c(C(F)(F)F)c2)nc(-c2cccc(N3CCOCC3)c2)nc1Oc1ccc(F)c(C(F)(F)F)c1 [Compound 1.30] |  | 79% | 
6 | Nc1c(Oc2ccc(F)c(C(F)(F)F)c2)nc(-c2ccccc2)nc1Oc1ccc(F)c(C(F)(F)F)c1 [2-phenyl-4,6-bis-(4-fluoro-3-[trifluoromethyl]phenoxy)-5-amino-pyrimidine] |  |  | acaricidal efficacy (Rhipicephalus sanguineus): does not show any significant acaricidal efficacy; insecticidal efficacy (Ctenocephalides felis): does not show any significant insecticidal efficacy; killing efficacy ([1]; at these low concentrations (doses of the table, 3.2-10 mg/kg)): No significant killing efficacy
7 | Cc1cccc(-c2nc(Oc3ccc(F)c(C(F)(F)F)c3)c(N)c(Oc3ccc(F)c(C(F)(F)F)c3)n2)c1 [Compound 1.9] | 74% |  | 
8 | Nc1c(Oc2ccc(F)c(C(F)(F)F)c2)nc(-c2ccc3cc[nH]c3c2)nc1Oc1ccc(F)c(C(F)(F)F)c1 [Compound 2.3] |  | 81% | 
9 | COc1cccc(-c2nc(Oc3ccc(F)c(C(F)(F)F)c3)c(N)c(Oc3ccc(F)c(C(F)(F)F)c3)n2)c1 [Compound 1.7] |  | 91% | 
10 | COCc1cccc(-c2nc(Oc3ccc(F)c(C(F)(F)F)c3)c(N)c(Oc3ccc(F)c(C(F)(F)F)c3)n2)c1 [Compound 1.27] |  | 78% | 
11 | CC(C)c1cccc(-c2nc(Oc3ccc(F)c(C(F)(F)F)c3)c(N)c(Oc3ccc(F)c(C(F)(F)F)c3)n2)c1 [Compound 1.10] | 81% |  | 
